According to patent publication US10131635B2, “Compositions and methods of using the compositions for plaque softening” (ALUMEND, LLC, priority 2013, dated 2018):

Columns and labels:
[1] = Linker solution hydrolysis (release of drug mimic, HPLC, first order rate constant); assay type: physicochemical; details: 37° C.
Experimental: The hydrolysis rate of a linker was studied without attachment to a naphthalimide compound or tissue attachment under physiological conditions. The work verified the expected hydrolysis rate and when combined with ex vivo data allows the influence of the tissue on the hydrolysis rate to be determined.
A 20 mg/mL stock solution of a drug mimic, such as an FITC derivative, was prepared by weighing out approximately 20 mg of material and diluting with 1 mL of H20. The release rate of each compound, the free mimic from its respective linker, was studied in duplicate as a function of time and pH (phosphate buffered saline (PBS) at pH=1, pH=7.4, and pH=10). The starting concentration for each preparation was 400 μg/mL of drug mimic with attached linker (20 μL of stock solution diluted with 980 μL of hydrolysis PBS). In order to more accurately mimic clinical conditions samples were prepared and stored in a 37° C. oven with slow agitation using a rotating mixer until analyzed using HPLC. The concentration of the target complex was determined in duplicates at multiple time points (t=0, 8, 24, 48, 72, 144, 216 hours) using the HPLC conditions below and quantitation using a standard curve. A 2 mg/mL stock solution of the target complex was prepared by weighing out approximately 20 mg of target complex and diluting with 10 mL of H2O. The following concentrations from the stock solution were prepared by performing serial dilutions in H2O:
Quantitation using a standard curve was used to determine the amount of drug mimic released (μg) at each time point and duplicate sample preparations at each time point were averaged. […] The detection limit of the method was 1 μg/mL. The standard curve for 3-phenylpropanol was also linear over the range of 1 μg/mL to 100 μg/mL with a detection limit of the method at 1 μg/mL.
Using the HPLC release data calculated for the free Bn and 3PP, shown below, kinetic curves were plotted (concentration vs time) for each compound using PSI Plot. The concentration was fit to a first order kinetic equation, where CT=CF−Cce^−kt (CT is the concentration at each time point (μg), CF is the final concentration (μg), Cc is the change in concentration (μg), and k is the rate constant (hr^−1). If the reaction rate didn't display first order kinetics (ie: there was a systematic deviation between the experimental points and the calculated rate constant) other kinetic models were examined. Typically data was collected until at least 90% of the expected product was released. A sample kinetic curve is shown in FIG. 15B.
The HPLC method was able to determine the identity of each compound and the component linker and drug mimic by the retention time as shown in the Table below. • Analytical Column: Alltima HP Rocket C18 3μ 53 mm×7 mm • Mobile Phase: A: 0.1% Trifluoroacetic acid(aq) (TFA), • B: 9:1 Acetonitrile:Water (0.1% TFA) • Gradient: 95% A hold for 1 minute, then ramp to 65% B at 7 minutes, hold for 0.5 minutes • (Equilibration time 5 minutes) • Detector: PDA detector at 440 nm Fluorescence detector excitation wavelength at nm emission wavelength at nm • Injection Volume: 20 μL • Flow Rate: 2.5 mL/min
Using the concentration versus time data, a rate constant was calculated for each compound at various pHs. […] The enhanced rate for the hydrolysis of the Gly/Bn is likely due to the formation of an internal 5 membered ring that would be autocatalytic.

[2] = system: artery; experiment: Arterial compression by other photoactivated material; details: FIG. 13
Experimental: Singlet oxygen generating species, such as Rose Bengal, riboflavin, and methylene blue were tested to determine if they would be effective at arterial compression.

[3] = system: calcified plaque in postmortem diseased femoral arteries; experiment: IVUS analysis of human cadaveric arterial samples (echogenicity)
Source text: The following equipment was used in this Example: IVUS, Boston Scientific iLab 120 CARTR, UPN Product number: H749iLab120CARTRO, manufactured April 2011, Serial number 7347. The software is iReview version 1.0. The catheter is Boston Scientific Atlantis SR Pro 40 MHz Coronary Imaging Catheter, catalog number 38942, 3.6 F×135 cm.
IVUS images have identified different types of plaque, e.g., soft, mixed, hard, and calcified. M. Sahara, et al., “Soft Plaque Detected on Intravascular Ultrasound Is the Strongest Predictor of In-Stent Restenosis: an Intravascular Ultrasound Study,” European Heart Journal, 25: 2026-2033 (2004), the disclosure of which is hereby incorporated by reference. For example, calcified plaque has been identified by two characteristics, i.e., a high echogenicity resulting in an intense reflection (bright white) and the presence of an acoustic shadow behind the plaque because the ultrasound cannot penetrate the calcified plaque.
Postmortem diseased femoral arteries (both left and right) were received approximately 16 hours after the time of death. The samples were inspected to assess the level of disease. When palpated both the right and left arteries were extremely hard and rigid throughout the entire length of both arteries. Occlusion was visually judged as ranging from 20-60%. The artery was placed in PBS and IVUS pullback (0.5 mm/s) was completed three times (PRE 1, PRE 2, PRE 3). […] The artery was thoroughly rinsed with PBS to remove any excess plaque-softening compound. The artery was then placed into PBS and an IVUS pullback was conducted three times (SOAK 1, SOAK 2, SOAK 3). A balloon angioplasty catheter was placed into the artery and inflated to the reference vessel diameter (RVD) without any overstrech. A radially emitting light fiber was inserted into the catheter and centered in the angioplasty balloon. The composition was activated by exposure to blue light (447 nm) at an intensity of 1800 mW for 60 seconds. The balloon catheter was removed and an IVUS pullback was completed three times (POST 1, POST 2, POST 3).
Each frame of each pullback (PRE 1, PRE 2, PRE 3, SOAK 1, SOAK 2, SOAK 3, POST 1, POST 2, POST 3) was analyzed and calcified plaque was identified including the acoustic shadow behind each area of plaque. FIGS. 15a and 15b are the IVUS images from frame 921 of PRE 1 and illustrate the existence of plaque. For each frame, the intensity of each gray pixel (based upon 255 shades of gray, “AVI” format and 521×521 pixels) within the arterial wall was determined. FIG. 17 is a histogram illustrating the gray scale of frame 921, PRE 1, wherein the y-axis is the pixel count and the x-axis is the pixel intensity. So, for example, there were a lot of pixels having a pixel intensity of 16 and very few pixels having a pixel intensity of 168. It is known that the relative amount of hypo-echogenic and hyper-echogenic reflections can be used to measure the change in calcified plaque. See S. Brugaletta, et al., “Serial In Vivo Intravascular Ultrasound-Based Echogenicity Changes of Everolimus-eluting Bioresorbable Vascular Scaffold During the First 12 Months After Implantation,” JACC: Cardiovascular Interventions, 4 (12):1281-1289 (2011), the disclosure of which is hereby incorporated by reference. For example, it is known that pixels with a gray scale intensity of 92 or lower were judged to be hypo-echogenic and those with a gray scale intensity of 93 or higher were judged to be hyper-echogenic. To be clear, in the instant Example, the mean gray value of the adventitia was used to classify tissue components as either hypo- or hyper-echogenic. One of ordinary skill in the art could easily determine the gray scale threshold for any data set in order to classify tissue components as either hypo- or hyper-echogenic.
The pixel intensity of the entire IVUS pullback data was analyzed as a single data set. […]

Compound | hydrolysis rate constant k ([1]; pH 1, PBS) | hydrolysis rate constant k ([1]; pH 7.4, PBS) | hydrolysis rate constant k ([1]; pH 10, PBS) | efficacy at arterial compression [2] | further results
NCCCC(=O)OCc1ccccc1 [GABA/Bn, Benzyl GABA] | 0.026 h⁻¹ | 0.011 h⁻¹ | 0.226 h⁻¹ |  | 
CN(C)c1ccc2nc3ccc(=[N+](C)C)cc-3sc2c1 [methylene blue] |  |  |  | No efficacy was observed | 
Nc1ccc2c3c(cccc13)C(=O)NC2=O [4-amino-1,8-naphthalimide] |  |  |  |  | flexibility of artery after treatment ([3]; after soak, balloon and light activation): more flexible and softer; Hypo-Echogenic pixels/Hyper-Echogenic pixels ([3]; entire IVUS pullback data, POST (soak plus balloon and 447 nm 1800 mW 60 seconds)): 5.011; Hypo-Echogenic pixels/Hyper-Echogenic pixels ([3]; entire IVUS pullback data, SOAK (2.5 mM, 5 minutes)): 4.699; Hypo-Echogenic pixels/Hyper-Echogenic pixels ([3]; frame 921, POST): 12.556; Hypo-Echogenic pixels/Hyper-Echogenic pixels ([3]; frame 921, SOAK): 7.500; Hypo-Echogenic pixels/Hyper-Echogenic pixels ([3]; frame 2925, POST): 21.050; Hypo-Echogenic pixels/Hyper-Echogenic pixels ([3]; frame 2925, SOAK): 9.043
NCC(=O)OCc1ccccc1 [Gly/Bn, Benzyl Glycinate] | 0.002 h⁻¹ | 0.311 h⁻¹ | 0.156 h⁻¹ |  | 
NCC(=O)OCCCc1ccccc1 [Gly/3PP, 3-Phenylpropyl Glycinate] | 0.004 h⁻¹ | 0.082 h⁻¹ | 0.155 h⁻¹ |  | 
O=C([O-])c1c(Cl)c(Cl)c(Cl)c(Cl)c1-c1c2cc(I)c(=O)c(I)c-2oc2c(I)c([O-])c(I)cc12.[Na+].[Na+] [Rose Bengal] |  |  |  | No efficacy was observed | 
NCCCC(=O)OCCCc1ccccc1 [GABA/3PP, 3-Phenylpropyl GABA] | 0.034 h⁻¹ | 0.010 h⁻¹ | 0.124 h⁻¹ |  | 
Cc1cc2nc3c(=O)[nH]c(=O)nc-3n(C[C@H](O)[C@H](O)[C@H](O)CO)c2cc1C [riboflavin] |  |  |  | No efficacy was observed | 
